# Assay results published in patent publication US10285979B2, “Breast cancer therapeutic agent containing 5′-hydroxy-5-nitro-indirubin-3′-oxime as active ingredient” (ANYGEN CO., LTD., priority 2016, dated 2019).
# Read-outs that look alike come from different tables or passages of the source.
# Key:
# [1] = system: 786-0; details: 10 μM; renal cell carcinoma cell line 786-0
# Excerpt: (§1) If the growth percent is 0%, it means that no further growth of cancer cells occurs, which is an ideal case.
# [2] = system: A498; details: 10 μM; renal cell carcinoma cell line A498
# Excerpt: as §1
# [3] = system: ACHN; details: 10 μM; renal cell carcinoma cell line ACHN
# Excerpt: as §1
# [4] = system: CAKI-1; details: 10 μM; renal cell carcinoma cell line CAKI-1
# Excerpt: as §1
# [5] = system: DU-145; details: 10 μM; prostate cancer cell line DU-145
# Excerpt: as §1
# [6] = system: HCC-2998; details: 10 μM; colorectal cancer cell line HCC-2998
# Excerpt: as §1
# [7] = system: HCT-116; details: 10 μM; colorectal cancer cell line HCT-116
# Excerpt: as §1
# [8] = system: KM12; details: 10 μM; colorectal cancer cell line KM12
# Excerpt: as §1
# [9] = system: LOX IMVI; details: 10 μM; malignant melanoma cell line LOX IMVI
# Excerpt: as §1
# [10] = system: MALME-3M; details: 10 μM; malignant melanoma cell line MALME-3M
# Excerpt: as §1
# [11] = system: MDA-MB-435; details: 10 μM; malignant melanoma cell line MDA-MB-435
# Excerpt: as §1
# [12] = system: MOLT-4; details: 10 μM; leukemia cell line MOLT-4
# Excerpt: as §1
# [13] = system: NCI-H23; details: 10 μM; non-small cell lung cancer cell line NCI-H23
# Excerpt: as §1
# [14] = system: NCI-H322M; details: 10 μM; non-small cell lung cancer cell line NCI-H322M
# Excerpt: as §1
# [15] = system: NCI/ADR/RES; details: 10 μM; ovarian cancer cell line NCI/ADR/RES
# Excerpt: as §1
# [16] = system: OVCAR-8; details: 10 μM; ovarian cancer cell line OVCAR-8
# Excerpt: as §1
# [17] = system: SK-MEL-28; details: 10 μM; malignant melanoma cell line SK-MEL-28
# Excerpt: as §1
# [18] = system: SK-MEL-2; details: 10 μM; malignant melanoma cell line SK-MEL-2
# Excerpt: as §1
# [19] = system: SK-OV-3; details: 10 μM; ovarian cancer cell line SK-OV-3
# Excerpt: as §1
# [20] = system: SW-620; details: 10 μM; colorectal cancer cell line SW-620
# Excerpt: as §1
# [21] = system: T-47D; details: 10 μM; breast cancer cell line T-47D
# Excerpt: as §1
# [22] = system: UACC-257; details: 10 μM; malignant melanoma cell line UACC-257
# Excerpt: as §1
# [23] = system: UACC-62; details: 10 μM; malignant melanoma cell line UACC-62
# Excerpt: as §1
# [24] = system: MDA-MB-231 breast cancer cell line; details: flow cytometry
# Excerpt: (§2) Further, we have investigated the cell cycles of MDA-MB-231 breast cancer cell line through Flow cytometry analysis.
# [25] = system: cyclin B1 expression; details: western blot; G2/M phase
# Excerpt: as §2
# [26] = system: MCF-7 ER positive breast cancer cells
# Excerpt: The tumor volume and shape in the nude mouse have been observed for 24 days.
# [27] = system: KB oral cavity cancer cells
# Procedure: The tumor has been grown after injecting KB oral cavity cancer cells (10×10^6 cells/0.1 ml of non-serum matrigel medium) to the nude mouse. […] The tumor growth has been observed for 28 days.
# The tumor volume and shape in the nude mouse have been observed for 28 days.
# [28] = system: A549 lung cancer cells
# Excerpt: The tumor has been grown after injecting A549 lung cancer cells to the nude mouse. […] The tumor growth has been observed for 27 days.
# The tumor volume and shape in the nude mouse have been observed for 27 days.
# [29] = system: A549 human non-small cell lung cancer cells; details: cited from earlier work
# [30] = system: TAMR-MCF-7 tamoxifen resistant breast cancer cells; test: TAMR-MCF-7 tamoxifen resistant breast cancer xenografted model, intraperitoneal
smiles,measurement,setting,value
"O=C1Nc2ccc([N+](=O)[O-])cc2C1=C1Nc2ccc(O)cc2C1=NO [AGM-130, (2′Z 3′E)-5′-hydroxy-5-nitro indirubin oxime]",Growth percent,[1],4.21%
same,Growth percent,[2],−24.52%
same,Growth percent,[3],−25.79%
same,Growth percent,[4],−14.28%
same,Growth percent,[5],6.72%
same,Growth percent,[6],8.93%
same,Growth percent,[7],2.29%
same,Growth percent,[8],−32.96%
same,Growth percent,[9],−32.44%
same,Growth percent,[10],11.73%
same,Growth percent,[11],9.35%
same,Growth percent,[12],2.17%
same,Growth percent,[13],3.19%
same,Growth percent,[14],7.21%
same,Growth percent,[15],42.05%
same,Growth percent,[16],7.71%
same,Growth percent,[17],−11.04%
same,Growth percent,[18],−55.01%
same,Growth percent,[19],−9.52%
same,Growth percent,[20],3.18%
same,Growth percent,[21],16.80%
same,Growth percent,[22],9.29%
same,Growth percent,[23],−34.39%
same,cell cycle phases,[24],decreased G1 phase and increased G2/M phase
same,cyclin B1 expression,[25],remarkably reduced
same,tumor volume reduction compared to control group,[26]; 3 mg/kg intravenously,about 49%
same,volume of tumor,"[26]; 3 mg/kg intravenously once a week, day 0",131.9 ± 8.6
same,volume of tumor,"[26]; 3 mg/kg intravenously once a week, day 3",167.5 ± 7.1
same,volume of tumor,"[26]; 3 mg/kg intravenously once a week, day 6",182.3 ± 4.2
same,volume of tumor,"[26]; 3 mg/kg intravenously once a week, day 9",253.3 ± 7.9
same,volume of tumor,"[26]; 3 mg/kg intravenously once a week, day 12",311.9 ± 2.3
same,volume of tumor,"[26]; 3 mg/kg intravenously once a week, day 15",337.5 ± 11.0
same,volume of tumor,"[26]; 3 mg/kg intravenously once a week, day 18",359.8 ± 15.6
same,volume of tumor,"[26]; 3 mg/kg intravenously once a week, day 21",408.2 ± 19.0
same,volume of tumor,"[26]; 3 mg/kg intravenously once a week, day 24",434.5 ± 18.3
same,tumor volume reduction compared to control group,[26]; 7 mg/kg intravenously,about 64%
same,volume of tumor,"[26]; 7 mg/kg intravenously once a week, day 0",129.1 ± 3.8
same,volume of tumor,"[26]; 7 mg/kg intravenously once a week, day 3",166.9 ± 7.4
same,volume of tumor,"[26]; 7 mg/kg intravenously once a week, day 6",190.0 ± 6.3
same,volume of tumor,"[26]; 7 mg/kg intravenously once a week, day 9",205.6 ± 11.4
same,volume of tumor,"[26]; 7 mg/kg intravenously once a week, day 12",235.6 ± 7.1
same,volume of tumor,"[26]; 7 mg/kg intravenously once a week, day 15",267.3 ± 9.4
same,volume of tumor,"[26]; 7 mg/kg intravenously once a week, day 18",288.1 ± 6.2
same,volume of tumor,"[26]; 7 mg/kg intravenously once a week, day 21",300.2 ± 15.4
same,volume of tumor,"[26]; 7 mg/kg intravenously once a week, day 24",310.1 ± 18.2
same,tumor volume reduction compared to control group,[26]; 14 mg/kg intravenously,about 69%
same,volume of tumor,"[26]; 14 mg/kg intravenously once a week, day 0",127.8 ± 2.4
same,volume of tumor,"[26]; 14 mg/kg intravenously once a week, day 3",156.8 ± 4.7
same,volume of tumor,"[26]; 14 mg/kg intravenously once a week, day 6",180.6 ± 5.0
same,volume of tumor,"[26]; 14 mg/kg intravenously once a week, day 9",202.9 ± 3.8
same,volume of tumor,"[26]; 14 mg/kg intravenously once a week, day 12",210.6 ± 5.1
same,volume of tumor,"[26]; 14 mg/kg intravenously once a week, day 15",234.7 ± 17.8
same,volume of tumor,"[26]; 14 mg/kg intravenously once a week, day 18",249.4 ± 15.3
same,volume of tumor,"[26]; 14 mg/kg intravenously once a week, day 21",264.8 ± 12.9
same,volume of tumor,"[26]; 14 mg/kg intravenously once a week, day 24",268.7 ± 8.7
same,volume of tumor,"[27]; 5/10/20 mg/kg intraperitoneally every other day, FIG. 11",cannot be reduced significantly
same,reduction of volume of tumor compared to paclitaxel,[27]; paclitaxel 10 mg/kg positive control,cannot result in significant reduction
same,volume of tumor,"[28]; 10/20/40 mg/kg intraperitoneally every other day, FIG. 14",cannot be reduced significantly
same,weight of tumor,"[28]; 10/20/40 mg/kg intraperitoneally, FIG. 15a",cannot be reduced significantly
same,apoptosis in tumor (TUNEL assay),"[28]; paraffin embedded tumor region, compared to vehicle, FIG. 15b",induces the apoptosis
same,cell cycle,[29],arrests the cell cycle of G2/M phase
same,proliferation,[29],significantly inhibits the proliferation
same,reduction of tumor volume,"[30]; 10 mg/kg and 40 mg/kg, FIG. 8",significantly observed
same,tumor volume reduction compared to control group,[30]; 10 mg/kg intraperitoneally twice a week,about 54%
same,tumor volume reduction compared to control group,[30]; 40 mg/kg intraperitoneally twice a week,about 45%
same,weight of mouse compared to control group,[30]; 10/40 mg/kg,changed significantly
